Measurements: PubChem BioAssay AID248 (DTP/NCI, 2004)
“And” between values parts separate entries of the source, which are not always exact repeats. Equal values may be shown once. Toxic doses and inconclusive results are not listed. No stated cut-off is given here; in the data, active means T/C of 150% or more; inactive means T/C below 125%.

Tested on: L1210 leukemia ip in BDF1 mice, survival T/C
Test: NCI In Vivo Anticancer Drug Screen. Data for tumor model L1210 Leukemia (intraperitoneal) in B6D2F1 (BDF1) mice
Settings: endpoint: mean survival time, higher = longer survival
Summary of the method: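 Mice bearing the transplanted tumor received compound or vehicle. Survival of the treated group was divided by that of the vehicle-treated control group to give the ratio.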

[1] = dose: 100.0 mg/kg/injection, schedule: Q04DX003 (ip), vehicle: Klucel (hydroxypropylcellulose) (HPC)
[2] = dose: 200.0 mg/kg/injection, schedule: Q04DX003 (ip), vehicle: Klucel (hydroxypropylcellulose) (HPC)
[3] = dose: 400.0 mg/kg/injection, schedule: Q04DX003 (ip), vehicle: Klucel (hydroxypropylcellulose) (HPC)
[4] = dose: 100.0 mg/kg/injection, schedule: Q01DX009 (ip), vehicle: Klucel (hydroxypropylcellulose) (HPC)
[5] = dose: 100.0 mg/kg/injection, schedule: Q01DX009 (ip), vehicle: saline with Tween-80
[6] = dose: 200.0 mg/kg/injection, schedule: Q01DX009 (ip), vehicle: saline with Tween-80
[7] = dose: 400.0 mg/kg/injection, schedule: Q01DX009 (ip), vehicle: saline with Tween-80
[8] = dose: 100.0 mg/kg/injection, schedule: Q04DX002 (ip), vehicle: Klucel (hydroxypropylcellulose) (HPC)
[9] = dose: 200.0 mg/kg/injection, schedule: Q04DX002 (ip), vehicle: Klucel (hydroxypropylcellulose) (HPC)
[10] = dose: 400.0 mg/kg/injection, schedule: Q04DX002 (ip), vehicle: Klucel (hydroxypropylcellulose) (HPC)
[11] = dose: 100.0 mg/kg/injection, schedule: Q04DX003 (ip), vehicle: saline with Tween-80
[12] = dose: 200.0 mg/kg/injection, schedule: Q04DX003 (ip), vehicle: saline with Tween-80
[13] = dose: 400.0 mg/kg/injection, schedule: Q04DX003 (ip), vehicle: saline with Tween-80
[14] = dose: 50.0 mg/kg/injection, schedule: Q04DX002 (ip), vehicle: Klucel (hydroxypropylcellulose) (HPC)
[15] = dose: 100.0 mg/kg/injection, schedule: Q01DX009 (ip), vehicle: saline
[16] = dose: 200.0 mg/kg/injection, schedule: Q01DX009 (ip), vehicle: saline
[17] = dose: 400.0 mg/kg/injection, schedule: Q01DX001 (ip), vehicle: carboxymethylcellulose (CMC)

Measured: T/C

O=C(N/N=C/c1ccccc1)c1cc([N+](=O)[O-])cc([N+](=O)[O-])c1
inactive: [1] 90 % of control | [2] 108 % of control | [3] 101 % of control

N#Cc1nc2ccc(Cl)cc2nc1C#N
inactive: dose: 25.0 mg/kg/injection, schedule: Q01DX009 (ip), vehicle: Klucel (hydroxypropylcellulose) (HPC) 104 % of control | dose: 50.0 mg/kg/injection, schedule: Q01DX009 (ip), vehicle: Klucel (hydroxypropylcellulose) (HPC) 105 % of control | [4] 95 % of control and 102 % of control

CC(=O)c1cccc(C#N)c1
inactive: [5] 100 % of control | [6] 97 % of control | [7] 105 % of control

COC(=O)C1C(=O)CC2(C)CCCCC12 (stereo not drawn)
inactive: [8] 97 % of control | [9] 100 % of control | [10] 93 % of control

Cc1ccc(-c2nc3cc(Cl)ccc3c(=O)o2)cc1
inactive: [11] 105 % of control | [12] 102 % of control | [13] 94 % of control

NC(N)=N/N=C/c1cc(Cl)cc(Cl)c1O
inactive: dose: 75.0 mg/kg/injection, schedule: Q01DX001 (ip), vehicle: saline 101 % of control

CS(=O)(=O)C(Cl)(Cl)S(C)(=O)=O
inactive: dose: 6.25 mg/kg/injection, schedule: Q01DX009 (ip), vehicle: saline with Tween-80 116 % of control | dose: 12.5 mg/kg/injection, schedule: Q01DX009 (ip), vehicle: saline with Tween-80 102 % of control | dose: 25.0 mg/kg/injection, schedule: Q01DX009 (ip), vehicle: saline with Tween-80 104 % of control

CCOC(=O)CNc1ccc(C)c(F)c1
inactive: dose: 25.0 mg/kg/injection, schedule: Q04DX002 (ip), vehicle: Klucel (hydroxypropylcellulose) (HPC) 98 % of control | [14] 98 % of control | [8] 97 % of control and 109 % of control

CCOC(=O)/C=C(\C)N1CCCCC1
inactive: [15] 104 % of control | [16] 100 % of control

OCCN1CCN(C(=S)[S-])CC1.OCCN1CCN(C(=S)[S-])CC1.[Zn]
inactive: dose: 10.0 mg/kg/injection, schedule: Q04DX003 (ip), vehicle: saline 93 % of control | dose: 20.0 mg/kg/injection, schedule: Q04DX003 (ip), vehicle: saline 90 % of control

S=C1SCN(C2CCCCCCCCCCC2)CN1C1CCCCCCCCCCC1
inactive: [11] 96 % of control | [12] 91 % of control | [13] 95 % of control

COc1ccc(NC(=O)Nc2ccccc2)cc1
inactive: [14] 105 % of control | [8] 98 % of control and 102 % of control | [9] 99 % of control | [10] 91 % of control

c1ccc2nc(NN=C3CCCCC3)ccc2c1
inactive: dose: 10.0 mg/kg/injection, schedule: Q01DX001 (ip), vehicle: saline 107 % of control | dose: 20.0 mg/kg/injection, schedule: Q01DX001 (ip), vehicle: saline 97 % of control | dose: 40.0 mg/kg/injection, schedule: Q01DX001 (ip), vehicle: saline 95 % of control

O=S(=O)(Oc1cccc(C(F)(F)F)c1)c1cccc(C(F)(F)F)c1
inactive: dose: 6.25 mg/kg/injection, schedule: Q01DX009 (ip), vehicle: saline sonified 101 % of control | dose: 6.25 mg/kg/injection, schedule: Q04DX003 (ip), vehicle: Klucel (hydroxypropylcellulose) (HPC) 103 % of control | dose: 12.5 mg/kg/injection, schedule: Q01DX009 (ip), vehicle: saline sonified 97 % of control | dose: 12.5 mg/kg/injection, schedule: Q04DX003 (ip), vehicle: Klucel (hydroxypropylcellulose) (HPC) 109 % of control | dose: 25.0 mg/kg/injection, schedule: Q01DX009 (ip), vehicle: saline sonified 90 % of control | dose: 25.0 mg/kg/injection, schedule: Q04DX003 (ip), vehicle: Klucel (hydroxypropylcellulose) (HPC) 117 % of control | [2] 86 % of control

C=CCOCCO
inactive: [15] 108 % of control | dose: 100.0 mg/kg/injection, schedule: Q04DX003 (ip), vehicle: saline 100 % of control | [16] 108 % of control | dose: 200.0 mg/kg/injection, schedule: Q04DX003 (ip), vehicle: saline 95 % of control | dose: 400.0 mg/kg/injection, schedule: Q01DX009 (ip), vehicle: saline 101 % of control | dose: 400.0 mg/kg/injection, schedule: Q04DX003 (ip), vehicle: saline 100 % of control

CC(CC#N)OC(=O)c1cccc([N+](=O)[O-])c1 (stereo not drawn)
inactive: [4] 91 % of control | [1] 115 % of control | dose: 200.0 mg/kg/injection, schedule: Q01DX009 (ip), vehicle: Klucel (hydroxypropylcellulose) (HPC) 93 % of control | [2] 93 % of control | dose: 400.0 mg/kg/injection, schedule: Q01DX009 (ip), vehicle: Klucel (hydroxypropylcellulose) (HPC) 98 % of control | [3] 105 % of control

CCc1ccc(NC(=S)NC(=O)/C=C/c2ccccc2)cc1
inactive: dose: 100.0 mg/kg/injection, schedule: Q01DX001 (ip), vehicle: saline with Tween-80 92 % of control | [5] 99 % of control and 102 % of control | dose: 100.0 mg/kg/injection, schedule: Q04DX002 (ip), vehicle: alcohol 114 % of control | [11] 92 % of control | dose: 200.0 mg/kg/injection, schedule: Q01DX001 (ip), vehicle: saline with Tween-80 87 % of control | [6] 92 % of control and 96 % of control | dose: 200.0 mg/kg/injection, schedule: Q04DX002 (ip), vehicle: alcohol 90 % of control | dose: 400.0 mg/kg/injection, schedule: Q01DX001 (ip), vehicle: saline with Tween-80 89 % of control | [7] 96 % of control and 105 % of control | dose: 400.0 mg/kg/injection, schedule: Q04DX002 (ip), vehicle: alcohol 97 % of control | [13] 87 % of control

Cc1noc(N)c1C#N
inactive: dose: 100.0 mg/kg/injection, schedule: Q04DX002 (ip), vehicle: saline with Tween-80 100 % of control | dose: 200.0 mg/kg/injection, schedule: Q04DX002 (ip), vehicle: saline with Tween-80 95 % of control | dose: 400.0 mg/kg/injection, schedule: Q04DX002 (ip), vehicle: saline with Tween-80 89 % of control

CN1C(=S)c2ccccc2S1(=O)=O
inactive: [11] 106 % of control | [12] 94 % of control | [13] 92 % of control

C=C(c1cn(C(C)=O)c2ccccc12)c1cn(C(C)=O)c2ccccc12
inactive: [11] 95 % of control

COc1cc(Nc2cc(N)nc(N)n2)cc(OC)c1OC
inactive: [11] 95 % of control | [12] 98 % of control | [13] 88 % of control

O=c1ccc2cc(OC3OC(CO)C(O)C(O)C3O)c(O)cc2o1 (stereo not drawn)
inactive: dose: 62.5 mg/kg/injection, schedule: Q01DX015 (ip), vehicle: carboxymethylcellulose (CMC) 95 % of control | dose: 125.0 mg/kg/injection, schedule: Q01DX015 (ip), vehicle: carboxymethylcellulose (CMC) 105 % of control | dose: 250.0 mg/kg/injection, schedule: Q01DX015 (ip), vehicle: carboxymethylcellulose (CMC) 100 % of control | [17] 111 % of control | dose: 600.0 mg/kg/injection, schedule: Q01DX001 (ip), vehicle: carboxymethylcellulose (CMC) 90 % of control | dose: 800.0 mg/kg/injection, schedule: Q01DX001 (ip), vehicle: carboxymethylcellulose (CMC) 92 % of control | dose: 1000.0 mg/kg/injection, schedule: Q01DX001 (ip), vehicle: carboxymethylcellulose (CMC) 101 % of control

OCC(O)C(O)C(O)C(O)C(O)c1nc2ccccc2[nH]1 (stereo not drawn)
inactive: [5] 101 % of control | [11] 97 % of control | [6] 98 % of control | [12] 93 % of control | [7] 96 % of control | [13] 103 % of control

COC(=O)c1cc2ccccc2cc1OCC(=O)NCc1ccc(Cl)cc1
inactive: dose: 50.0 mg/kg/injection, schedule: Q01DX001 (ip), vehicle: Klucel (hydroxypropylcellulose) (HPC) 105 % of control | dose: 100.0 mg/kg/injection, schedule: Q01DX001 (ip), vehicle: Klucel (hydroxypropylcellulose) (HPC) 94 % of control | dose: 200.0 mg/kg/injection, schedule: Q01DX001 (ip), vehicle: Klucel (hydroxypropylcellulose) (HPC) 97 % of control

CC1=NN(c2ccccc2)C(=O)C1N=Nc1ccc(S(=O)(=O)Nc2nccc(C)n2)cc1 (stereo not drawn)
inactive: dose: 100.0 mg/kg/injection, schedule: Q01DX001 (ip), vehicle: carboxymethylcellulose (CMC) 98 % of control | dose: 200.0 mg/kg/injection, schedule: Q01DX001 (ip), vehicle: carboxymethylcellulose (CMC) 98 % of control | [17] 88 % of control

CCCCCCCCCCCC#N
inactive: [5] 107 % of control | [6] 96 % of control | [7] 90 % of control
